Drawing on patent US20240218022A1, “ANTI-VISTA MACROCYCLIC PEPTIDES AND COMPOSITIONS” (BRISTOL-MYERS SQUIBB COMPANY, priority 2022, published 2024), this text covers IC50 for 6 molecules.

Where two headings read alike, the source gives them in different places. Starred links: 1 amine or outer side, 2 acyl side, 3 side chain; linkers in the order of their positions; H or OH if unused. Positions of bridges follow the written chain, without caps; N, C: chain ends. Non-standard residues stand in square brackets, D forms with d. Residues, ends and D or L forms follow the SMILES beside them. Trp(1-Me) = Cn1cc(C[C@H](N)C(=O)O)c2ccccc21; Phe(3-Me) = Cc1cccc(C[C@H](N)C(=O)O)c1; γGlu = O=C(O)[C@H](CCC(=O)[*:2])N[*:1]; 2Nal = N[C@@H](Cc1ccc2ccccc2c1)C(=O)O; Ahp(2) = CCCCC[C@H](N)C(=O)O; NMeNle = CCCC[C@H](NC)C(=O)O; Tle = CC(C)(C)[C@H](N)C(=O)O; NHexGly = CCCCCCNCC(=O)O; Nle = CCCC[C@H](N)C(=O)O; Aun = NCCCCCCCCCCC(=O)O; Dab = NCC[C@H](N)C(=O)O

The assay concerns the target T1, mouse VISTA (mVISTA) (Mus musculus, UniProt Q9D659).
T1 construct: expressed in transfected cells; host or cells: Human embryonic kidney 293T cells
T1 sequence (Q9D659 33-308): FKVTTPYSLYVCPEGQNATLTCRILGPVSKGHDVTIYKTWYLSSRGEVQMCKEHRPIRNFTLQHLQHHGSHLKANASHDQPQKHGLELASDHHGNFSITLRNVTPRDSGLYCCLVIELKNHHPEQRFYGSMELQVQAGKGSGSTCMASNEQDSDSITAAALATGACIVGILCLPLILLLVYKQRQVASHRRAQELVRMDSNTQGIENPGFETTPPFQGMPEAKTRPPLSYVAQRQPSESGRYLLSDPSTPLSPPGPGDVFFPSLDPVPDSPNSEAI
The assay is described as follows: Cell-Based Binding High-Content Assay For mVISTA (HC CBA mVISTA). The settings on record: read-out: HC CBA mVISTA IC50. In a few lines:
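Competition of compound with a biotinylated peptide (final 2 nM, 30 min at RT) for binding to mVISTA on 293T cells, run under no-wash or wash (1 h compound preincubation then removal) formats. Readout by Alexa 647–streptavidin imaging on a high-content platform; four-parameter logistic fit gave IC50.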

Setting [1] is: 293T cells expressing mouse VISTA, competition with biotinylated peptide (2 nM).

In the case of `CCCCCCN1CC(=O)N[C@@H](Cc2ccc(O)cc2)C(=O)N[C@@H](CCCC)C(=O)N[C@@H](CC(N)=O)C(=O)N[C@@H](CCCNC(=N)N)C(=O)N[C@@H](CC(C)C)C(=O)N[C@@H](CCCCC)C(=O)N2CCC[C@H]2C(=O)N[C@@H](C(C)C)C(=O)N[C@@H](CC(=O)O)C(=O)N[C@H](C(=O)NCC(=O)O)CSCC(=O)N[C@@H](Cc2ccccc2)C(=O)N[C@@H](Cc2cn(C)c3ccccc23)C(=O)N[C@@H](CC(=O)O)C1=O` [compound 1455] ({CH2CO}-F[Trp(1-Me)]D[NHexGly]Y[Nle]NRL[Ahp(2)]PVDCG-OH; thioether N-14), the IC50 (the 20th table, scaffold drawing 23) stood at 3.5 nM.

Regarding `CCCCCCN1CC(=O)N[C@@H](Cc2ccc(O)cc2)C(=O)N[C@@H](CCCCC)C(=O)N[C@@H](CCCCN)C(=O)N[C@@H](CCCNC(=N)N)C(=O)N[C@@H](CC(C)C)C(=O)N[C@@H](CCCCC)C(=O)N2CCC[C@H]2C(=O)N[C@@H](C(C)C)C(=O)N[C@@H](CO)C(=O)N[C@H](C(=O)NCC(N)=O)CSCC(=O)N[C@@H](Cc2ccccc2)C(=O)N[C@@H](Cc2ccc(O)cc2)C(=O)N[C@@H](CC(=O)O)C1=O` [Example 1056] ({CH2CO}-FYD[NHexGly]Y[Ahp(2)]KRL[Ahp(2)]PVSCG-NH2; thioether N-14), the IC50 under setting [1] was found to be 17.1 nM.

`CCCCCCN1CC(=O)N[C@@H](Cc2ccc(O)cc2)C(=O)N[C@@H](CCCCC)C(=O)N[C@@H](CC(N)=O)C(=O)N[C@@H](CCCNC(=N)N)C(=O)N[C@@H](CC(C)C)C(=O)N[C@@H](CCCCC)C(=O)N2CCC[C@H]2C(=O)N[C@@H](C(C)C)C(=O)N[C@@H](CO)C(=O)N[C@H](C(=O)NCC(=O)O)CSCC(=O)N[C@@H](Cc2ccccc2)C(=O)N[C@@H](Cc2ccc(O)cc2)C(=O)N[C@@H](CC(=O)O)C1=O` [Example 1034] ({CH2CO}-FYD[NHexGly]Y[Ahp(2)]NRL[Ahp(2)]PVSCG-OH; thioether N-14): the IC50 under setting [1] stood at 3.7 nM.

With `CCCCCCN1CC(=O)N[C@@H](Cc2ccc(O)cc2)C(=O)N[C@@H](CCCC)C(=O)N[C@@H](CC(=O)O)C(=O)N[C@@H](CCCNC(=N)N)C(=O)N(C)[C@@H](CCCC)C(=O)N[C@@H](CCCCC)C(=O)N2CCC[C@H]2C(=O)N[C@@H](C(C)C)C(=O)N[C@@H](CC(=O)O)C(=O)N[C@H](C(=O)N[C@@H](CO)C(N)=O)CSCC(=O)N[C@@H](Cc2cccc(C)c2)C(=O)N[C@@H](Cc2c[nH]c3ccccc23)C(=O)N[C@@H](CC(=O)O)C1=O` [compound 1445] ({CH2CO}-[Phe(3-Me)]WD[NHexGly]Y[Nle]DR[NMeNle][Ahp(2)]PVDCS-NH2; thioether N-14), under “the 19th table, scaffold drawing 22”, the IC50 worked out at 9.9 nM.

`CCCCCCN1CC(=O)N[C@@H](Cc2ccc(O)cc2)C(=O)N[C@@H](CC(C)C)C(=O)NCC(=O)N[C@@H](CCCNC(=N)N)C(=O)N[C@@H](Cc2ccc(O)cc2)C(=O)N[C@@H](CCCCC)C(=O)N2CCC[C@H]2C(=O)N[C@@H](C(C)C)C(=O)N[C@@H](CO)C(=O)N[C@H](C(=O)NCC(=O)O)CSCC(=O)N[C@@H](Cc2ccc3ccccc3c2)C(=O)N[C@@H](Cc2ccc(O)cc2)C(=O)N[C@@H](CC(=O)O)C1=O` [Ex 1292] ({CH2CO}-[2Nal]YD[NHexGly]YLGRY[Ahp(2)]PVSCG-OH; thioether N-14): the IC50 (cell-based binding high-content assay, mVISTA, the 16th table) stood at 29.9 nM.

As for `CCCCCCN1CC(=O)N[C@@H](Cc2ccc(O)cc2)C(=O)N[C@@H](CC(C)C)C(=O)N[C@@H](CC(N)=O)C(=O)N[C@@H](CCCNC(=N)N)C(=O)N(C)[C@@H](CCCC)C(=O)N[C@@H](CCCCC)C(=O)N2CCC[C@H]2C(=O)N[C@@H](C(C)(C)C)C(=O)N[C@@H](CO)C(=O)N[C@H](C(=O)N[C@@H](CCC(=O)N[C@@H](CCN)C(=O)NCCCCCCCCCCC(=O)O)C(=O)O)CSCC(=O)N[C@@H](Cc2ccccc2)C(=O)N[C@@H](Cc2ccc(O)cc2)C(=O)N[C@@H](CC(=O)O)C1=O` [Example 2323] ({CH2CO}-FYD[NHexGly]YLNR[NMeNle][Ahp(2)]P[Tle]SC[γGlu][Dab][Aun]-OH; thioether N-14), the IC50 (cell-based binding high-content assay) is 33.9 nM.
